# Measurements from patent US9339463B2, “Micronized opioid compositions having a specific particle size distribution” (priority 2007, dated 2016).
# Columns and labels:
# Format in all cases: physicochemical
# [1] = Physical stability on storage: particle size (Dv90) by laser diffraction
# [2] = Physical stability on storage: DSC onset melt; settings: 3 mo
# Method: The micronized lots may also be analyzed by Differential Scanning Calorimetry (DSC). DSC is performed on a TA instrument Q100 using a heating ramp from 25-235° C. at a rate of 5° C./min. […] The sharp endotherm observed is consistent with a crystalline material and the absence of other thermal events proves that there were no polymorph transformations during melting.
# (§1) Samples of Example 2 and additional samples comprising micronized and non-micronized oxycodone useful for exemplary dosage forms are tested for their chemical stability and physical stability. Based on a comparison of stability data from micronized and non-micronized samples stored at both 25° C./60% RH and 40 C.°/75% RH, no differences are observed in the impurity profile through three months of study as shown in Tables 4 and 5 for exemplary lots. The impurities analyzed include (HOXY), 14-Hydroxycodeinone; (DHOXYN), 7,8-Dihydro-8,14-Dihydroxycodeinone; (DHOXY), 7,8-Dihydro-14-hydroxycodeine; (OXYE), Oxycodone ethylenolate; (OXYN), 1-Hydroxyoxycodone and Oxycodone N-oxide. Most of the impurities are found to be below the limit of quantitation (LOQ), except for HOXY and DHOXYN which were unchanged at 0.1%. […] The solid state stability of the micronized oxycodone is monitored for particle size, XRPD, DSC, and microscopy as shown in Table 6.
# [3] = Physical stability on storage: microscopy; settings: 3 mo
# Method: (§2) As a secondary analytical method, the micronized and the non-micronized oxycodone analyzed by laser diffraction with results shown in Table 1, were analyzed by optical microscopy to evaluate particle size and the results are shown in Table 2. Sample aliquots (˜50 mg for micronized and ˜225 mg for non-micronized) were dispersed in 10 ml of sunflower oil and viewed on a Nikon microscope equipped with a 10× objective. Particle size (mean diameter) was determined using Image Pro® Plus software and expressed as a number % undersize. The particle size values determined by optical microscopy as shown in Table 2 are consistent with the laser diffraction particle size data shown in Table 1.
# as §1
# [4] = Chemical stability on storage: assay and impurities
# Method: as §1
# [5] = Particle size by optical microscopy, number % undersize; settings: mean diameter
# Method: as §2
# [6] = Particle size distribution by laser diffraction (Malvern Mastersizer 2000), oxycodone base
# [7] = Table 1 analysis, lot 2 in duplicate
# [8] = additional laser diffraction analysis, Table 3
# [9] = Time 0, listed as Non-micronized Oxycodone Free Base
smiles,measurement,setting,value
"COc1ccc2c3c1O[C@H]1C(=O)CC[C@@]4(O)[C@@H](C2)N(C)CC[C@]314 [Lot 3, oxycodone]",Particle size (Dv90),"[1]; 25° C./60% RH, 1 month",9 μ
same,Particle size (Dv90),"[1]; 25° C./60% RH, 3 months",10 μ
same,Particle size (Dv90),"[1]; 25° C./60% RH, 6 months",10 μ
same,Particle size (Dv90),"[1]; 25° C./60% RH, 9 months",8 μ
same,Particle size (Dv90),"[1]; 25° C./60% RH, 12 months",8 μ
same,Particle size (Dv90),"[1]; 40° C./75% RH, 1 month",9 μ
same,Particle size (Dv90),"[1]; 40° C./75% RH, 3 months",11 μ
same,Particle size (Dv90),"[1]; 40° C./75% RH, 6 months",10 μ
same,Particle size (Dv90),[1]; Time 0,6 μ
same,DSC Onset Melt,[2]; 25° C./60% RH,221.9 °C
same,DSC Onset Melt,[2]; 40° C./75% RH,221.9 °C
same,"Microscopy, ≦10 μ",[3]; 25° C./60% RH,98.3%
same,"Microscopy, ≦10 μ",[3]; 40° C./75% RH,94.5%
same,1-HydroxyOXY,"[4]; 5° C./60% RH, 1 mo (Table 4)",<LOQ
same,1-HydroxyOXY,"[4]; 5° C./60% RH, 3 mo (Table 4)",<LOQ
same,Assay,"[4]; 25° C./60% RH, 1 mo",98.5%
same,"DHOXY (7,8-Dihydro-14-hydroxycodeine)","[4]; 25° C./60% RH, 1 mo",<LOQ
same,"DHOXYN (7,8-Dihydro-8,14-Dihydroxycodeinone)","[4]; 25° C./60% RH, 1 mo",0.10%
same,HOXY (14-Hydroxycodeinone),"[4]; 25° C./60% RH, 1 mo",0.08%
same,OXYE (Oxycodone ethylenolate),"[4]; 25° C./60% RH, 1 mo",<LOQ
same,OXYN,"[4]; 25° C./60% RH, 1 mo",<LOQ
same,Other (impurities; Table 5: >0.05%),"[4]; 25° C./60% RH, 1 mo",<LOQ
same,Total impurities,"[4]; 25° C./60% RH, 1 mo",0.18%
same,Assay,"[4]; 25° C./60% RH, 3 mo",98.5%
same,"DHOXY (7,8-Dihydro-14-hydroxycodeine)","[4]; 25° C./60% RH, 3 mo",<LOQ
same,"DHOXYN (7,8-Dihydro-8,14-Dihydroxycodeinone)","[4]; 25° C./60% RH, 3 mo",0.10%
same,HOXY (14-Hydroxycodeinone),"[4]; 25° C./60% RH, 3 mo",0.08%
same,OXYE (Oxycodone ethylenolate),"[4]; 25° C./60% RH, 3 mo",<LOQ
same,OXYN,"[4]; 25° C./60% RH, 3 mo",<LOQ
same,Other (impurities; Table 5: >0.05%),"[4]; 25° C./60% RH, 3 mo",<LOQ
same,Total impurities,"[4]; 25° C./60% RH, 3 mo",0.18%
same,1-HydroxyOXY,"[4]; 40° C./75% RH, 1 mo",<LOQ
same,Assay,"[4]; 40° C./75% RH, 1 mo",100.1%
same,"DHOXY (7,8-Dihydro-14-hydroxycodeine)","[4]; 40° C./75% RH, 1 mo",<LOQ
same,"DHOXYN (7,8-Dihydro-8,14-Dihydroxycodeinone)","[4]; 40° C./75% RH, 1 mo",0.10%
same,HOXY (14-Hydroxycodeinone),"[4]; 40° C./75% RH, 1 mo",0.08%
same,OXYE (Oxycodone ethylenolate),"[4]; 40° C./75% RH, 1 mo",<LOQ
same,OXYN,"[4]; 40° C./75% RH, 1 mo",<LOQ
same,Other (impurities; Table 5: >0.05%),"[4]; 40° C./75% RH, 1 mo",<LOQ
same,Total impurities,"[4]; 40° C./75% RH, 1 mo",0.18%
same,1-HydroxyOXY,"[4]; 40° C./75% RH, 3 mo",<LOQ
same,Assay,"[4]; 40° C./75% RH, 3 mo",99.5%
same,"DHOXY (7,8-Dihydro-14-hydroxycodeine)","[4]; 40° C./75% RH, 3 mo",<LOQ
same,"DHOXYN (7,8-Dihydro-8,14-Dihydroxycodeinone)","[4]; 40° C./75% RH, 3 mo",0.10%
same,HOXY (14-Hydroxycodeinone),"[4]; 40° C./75% RH, 3 mo",0.08%
same,OXYE (Oxycodone ethylenolate),"[4]; 40° C./75% RH, 3 mo",<LOQ
same,OXYN,"[4]; 40° C./75% RH, 3 mo",<LOQ
same,Other (impurities; Table 5: >0.05%),"[4]; 40° C./75% RH, 3 mo",<LOQ
same,Total impurities,"[4]; 40° C./75% RH, 3 mo",0.18%
same,1-HydroxyOXY,[4]; Time 0,<LOQ
same,Assay,[4]; Time 0,100.4%
same,"DHOXY (7,8-Dihydro-14-hydroxycodeine)",[4]; Time 0,<LOQ
same,"DHOXYN (7,8-Dihydro-8,14-Dihydroxycodeinone)",[4]; Time 0,0.11%
same,HOXY (14-Hydroxycodeinone),[4]; Time 0,0.07%
same,OXYE (Oxycodone ethylenolate),[4]; Time 0,<LOQ
same,OXYN,[4]; Time 0,<LOQ
same,Other (impurities; Table 5: >0.05%),[4]; Time 0,<LOQ
same,Total impurities,[4]; Time 0,0.18%
"COc1ccc2c3c1O[C@H]1C(=O)CC[C@@]4(O)[C@@H](C2)N(C)CC[C@]314 [Non-micronized, oxycodone]",% ≦ 1μ,[5],21.4%
same,% ≦ 5μ,[5],50.7%
same,% ≦ 10μ,[5],69.1%
same,Particle size (Dv10),[6]; [7],5.7 μ
same,Particle size (Dv50),[6]; [7],20.5 μ
same,Particle size (Dv90),[6]; [7],55.5 μ
same,Particle size (Dv90),"[6]; Table 1 analysis, lot 2 in duplicate, listed as non-micronized sample",56 μ
same,Particle size (Dv10),[6]; [8],4.9 μ
same,Particle size (Dv50),[6]; [8],20.1 μ
same,Particle size (Dv90),[6]; [8],50.9 μ
same,Particle size (Dv90),"[6]; additional laser diffraction analysis, Table 3, listed as non-micronized",51 μ
same,mean particle size,[6]; oxycodone base before micronization,51 μ
same,1-HydroxyOXY,"[4]; 25° C./60% RH, 1 mo",<LOQ
same,"DHOXY (7,8-Dihydro-14-hydroxycodeine)","[4]; 25° C./60% RH, 1 mo",<LOQ
same,"DHOXYN (7,8-Dihydro-8,14-Dihydroxycodeinone)","[4]; 25° C./60% RH, 1 mo",0.10%
same,HOXY (14-Hydroxycodeinone),"[4]; 25° C./60% RH, 1 mo",0.08%
same,OXYE (Oxycodone ethylenolate),"[4]; 25° C./60% RH, 1 mo",<LOQ
same,OXYN,"[4]; 25° C./60% RH, 1 mo",<LOQ
same,Other (impurities; Table 5: >0.05%),"[4]; 25° C./60% RH, 1 mo",<LOQ
same,Total impurities,"[4]; 25° C./60% RH, 1 mo",0.18%
same,Assay,"[4]; 25° C./60% RH, 1 mo, listed as Non-micronized Oxycodone Free Base",99.6%
same,1-HydroxyOXY,"[4]; 25° C./60% RH, 3 mo",<LOQ
same,"DHOXY (7,8-Dihydro-14-hydroxycodeine)","[4]; 25° C./60% RH, 3 mo",<LOQ
same,"DHOXYN (7,8-Dihydro-8,14-Dihydroxycodeinone)","[4]; 25° C./60% RH, 3 mo",0.10%
same,HOXY (14-Hydroxycodeinone),"[4]; 25° C./60% RH, 3 mo",0.08%
same,OXYE (Oxycodone ethylenolate),"[4]; 25° C./60% RH, 3 mo",<LOQ
same,OXYN,"[4]; 25° C./60% RH, 3 mo",<LOQ
same,Other (impurities; Table 5: >0.05%),"[4]; 25° C./60% RH, 3 mo",<LOQ
same,Total impurities,"[4]; 25° C./60% RH, 3 mo",0.18%
same,Assay,"[4]; 25° C./60% RH, 3 mo, listed as Non-micronized Oxycodone Free Base",99.6%
same,1-HydroxyOXY,"[4]; 40° C./75% RH, 1 mo",<LOQ
same,"DHOXY (7,8-Dihydro-14-hydroxycodeine)","[4]; 40° C./75% RH, 1 mo",<LOQ
same,"DHOXYN (7,8-Dihydro-8,14-Dihydroxycodeinone)","[4]; 40° C./75% RH, 1 mo",0.10%
same,HOXY (14-Hydroxycodeinone),"[4]; 40° C./75% RH, 1 mo",0.08%
same,OXYE (Oxycodone ethylenolate),"[4]; 40° C./75% RH, 1 mo",<LOQ
same,OXYN,"[4]; 40° C./75% RH, 1 mo",<LOQ
same,Total impurities,"[4]; 40° C./75% RH, 1 mo",0.18%
same,Assay,"[4]; 40° C./75% RH, 1 mo, listed as Non-micronized Oxycodone Free Base",99.6%
same,1-HydroxyOXY,"[4]; 40° C./75% RH, 3 mo",<LOQ
same,"DHOXY (7,8-Dihydro-14-hydroxycodeine)","[4]; 40° C./75% RH, 3 mo",<LOQ
same,"DHOXYN (7,8-Dihydro-8,14-Dihydroxycodeinone)","[4]; 40° C./75% RH, 3 mo",0.10%
same,HOXY (14-Hydroxycodeinone),"[4]; 40° C./75% RH, 3 mo",0.08%
same,OXYE (Oxycodone ethylenolate),"[4]; 40° C./75% RH, 3 mo",<LOQ
same,OXYN,"[4]; 40° C./75% RH, 3 mo",<LOQ
same,Other (impurities; Table 5: >0.05%),"[4]; 40° C./75% RH, 3 mo",<LOQ
same,Total impurities,"[4]; 40° C./75% RH, 3 mo",0.18%
same,Assay,"[4]; 40° C./75% RH, 3 mo, listed as Non-micronized Oxycodone Free Base",99.5%
same,1-HydroxyOXY,[4]; Time 0,<LOQ
same,"DHOXY (7,8-Dihydro-14-hydroxycodeine)",[4]; Time 0,<LOQ
same,OXYE (Oxycodone ethylenolate),[4]; Time 0,<LOQ
same,OXYN,[4]; Time 0,<LOQ
same,Other (impurities; Table 5: >0.05%),[4]; Time 0,<LOQ
same,Total impurities,[4]; Time 0,0.18%
same,Assay,[4]; [9],101.1%
same,"DHOXYN (7,8-Dihydro-8,14-Dihydroxycodeinone)",[4]; [9],0.10%
same,HOXY (14-Hydroxycodeinone),[4]; [9],0.08%
